Results reported in ChEMBL document CHEMBL4842357, “Discovery of Novel Apigenin-Piperazine Hybrids as Potent and Selective Poly (ADP-Ribose) Polymerase-1 (PARP-1) Inhibitors for the Treatment of Cancer” (J Med Chem, 2021).

What was measured:
Homo sapiens [1] = species: Homo sapiens; assay: Selectivity index, ratio of IC50 for inhibition of recombinant human full-length PARP-2 to IC50 for inhibition of recombinant human full-length PARP-1
[2] = biological target: T1, Poly [ADP-ribose] polymerase 2 (Homo sapiens, UniProt Q9UGN5); assay: Inhibition of recombinant human full-length PARP-2 using biotinylated substrate
T1 sequence (Q9UGN5 whole entry): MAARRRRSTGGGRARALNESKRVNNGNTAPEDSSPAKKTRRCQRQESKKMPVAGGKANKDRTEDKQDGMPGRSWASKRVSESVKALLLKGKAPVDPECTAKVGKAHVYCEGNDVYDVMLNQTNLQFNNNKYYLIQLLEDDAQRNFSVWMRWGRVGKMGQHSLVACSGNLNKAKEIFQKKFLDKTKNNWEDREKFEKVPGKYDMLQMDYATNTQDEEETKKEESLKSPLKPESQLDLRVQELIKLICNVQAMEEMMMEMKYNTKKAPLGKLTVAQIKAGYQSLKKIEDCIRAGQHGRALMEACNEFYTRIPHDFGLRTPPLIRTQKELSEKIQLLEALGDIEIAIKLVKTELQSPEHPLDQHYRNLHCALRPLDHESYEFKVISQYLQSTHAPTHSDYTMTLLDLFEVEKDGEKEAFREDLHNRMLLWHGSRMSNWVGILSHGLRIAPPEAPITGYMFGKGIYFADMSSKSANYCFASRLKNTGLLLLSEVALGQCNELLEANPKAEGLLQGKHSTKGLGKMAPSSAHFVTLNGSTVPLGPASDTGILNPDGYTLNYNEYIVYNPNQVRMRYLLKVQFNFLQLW

[3] = biological target: Poly [ADP-ribose] polymerase 1 (Homo sapiens, UniProt P09874); assay: Inhibition of recombinant human full-length PARP-1 using biotinylated substrate
Chain of Poly [ADP-ribose] polymerase 1 (P09874 whole entry): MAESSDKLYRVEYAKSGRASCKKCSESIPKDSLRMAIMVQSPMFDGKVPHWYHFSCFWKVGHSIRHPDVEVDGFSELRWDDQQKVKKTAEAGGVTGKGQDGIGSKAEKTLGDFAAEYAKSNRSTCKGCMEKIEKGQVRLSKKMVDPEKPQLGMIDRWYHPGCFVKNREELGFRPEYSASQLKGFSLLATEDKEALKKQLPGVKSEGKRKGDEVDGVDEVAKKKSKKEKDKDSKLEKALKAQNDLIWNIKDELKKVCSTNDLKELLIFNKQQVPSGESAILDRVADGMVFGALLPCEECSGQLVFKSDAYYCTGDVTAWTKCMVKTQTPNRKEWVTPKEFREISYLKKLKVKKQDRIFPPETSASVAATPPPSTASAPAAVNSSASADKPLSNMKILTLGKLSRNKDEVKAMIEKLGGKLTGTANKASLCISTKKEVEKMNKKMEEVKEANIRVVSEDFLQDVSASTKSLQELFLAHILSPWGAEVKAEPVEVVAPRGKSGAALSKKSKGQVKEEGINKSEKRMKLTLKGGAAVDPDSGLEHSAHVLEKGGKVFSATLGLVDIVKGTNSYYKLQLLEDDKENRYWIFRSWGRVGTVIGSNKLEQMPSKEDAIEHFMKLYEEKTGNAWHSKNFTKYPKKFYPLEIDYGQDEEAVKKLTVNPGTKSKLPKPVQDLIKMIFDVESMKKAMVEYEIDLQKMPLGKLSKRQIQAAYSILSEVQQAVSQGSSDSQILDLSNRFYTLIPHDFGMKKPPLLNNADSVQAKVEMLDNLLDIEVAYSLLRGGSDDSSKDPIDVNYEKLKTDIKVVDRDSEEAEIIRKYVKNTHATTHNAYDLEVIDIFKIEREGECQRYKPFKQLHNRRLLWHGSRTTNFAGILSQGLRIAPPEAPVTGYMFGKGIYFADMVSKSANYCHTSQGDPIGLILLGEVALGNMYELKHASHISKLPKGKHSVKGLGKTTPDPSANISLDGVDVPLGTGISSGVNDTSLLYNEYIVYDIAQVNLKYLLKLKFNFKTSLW

[4] = biological target: T1, Poly [ADP-ribose] polymerase 2; assay: Inhibition of PARP-2 (unknown origin)
Homo sapiens [5] = species: Homo sapiens; assay: Selectivity index, ratio of IC50 for PARP-2 (unknown origin) to IC50 for PARP-1 (unknown origin)

SMILES | Ratio IC50 (Homo sapiens [1]) | IC50 [2] [nM] | IC50 [3] [nM] | IC50 [4] [nM] | Ratio IC50 (Homo sapiens [5])
O=c1cc(-c2ccc(O)cc2)oc2c(CN3CCN(c4ccc(Cl)cc4)CC3)c(O)cc(O)c12 | 60.8 | 3700 | 60.8 |  | 
COc1ccc(CN2CCN(Cc3c(O)cc(O)c4c(=O)cc(-c5ccc(O)cc5)oc34)CC2)c(OC)c1OC | 55.5 | 1200 | 21.6 |  | 
Cc1ccc(-c2cc(=O)c3c(O)cc(O)c(-c4cccc(-c5cc(=O)c6c(O)cc(O)cc6o5)c4)c3o2)cc1 | 42.2 | 12500 | 296 |  | 
O=c1cc(-c2ccc(O)cc2)oc2c(CN3CCN(Cc4ccncc4)CC3)c(O)cc(O)c12 | 55.5 | 1100 | 19.8 |  | 
O=c1cc(-c2ccc(O)cc2)oc2c(CN3CCN(c4ccc(C(F)(F)F)cc4)CC3)c(O)cc(O)c12 | 56.2 | 2800 | 49.8 |  | 
Cc1ccc(CN2CCN(Cc3c(O)cc(O)c4c(=O)cc(-c5ccc(O)cc5)oc34)CC2)cc1 | 58.8 | 1800 | 30.6 |  | 
O=C(C1CCC1)N1CCN(Cc2c(O)cc(O)c3c(=O)cc(-c4ccc(O)cc4)oc23)CC1 | 57.1 | 2600 | 45.5 |  | 
COc1cc(/C=N/NC(N)=S)c(Br)c(Br)c1OC |  |  |  | > 1000 | > 33.9
O=c1cc(-c2ccc(O)cc2)oc2c(CN3CCN(Cc4ccc(F)cc4)CC3)c(O)cc(O)c12 | 58 | 2000 | 34.5 |  | 
O=C(C1CC1)N1CCN(Cc2c(O)cc(O)c3c(=O)cc(-c4ccc(O)cc4)oc23)CC1 | 66.7 | 2500 | 37.5 |  | 
O=c1cc(-c2ccc(O)cc2)oc2c(CN3CCC(CO)CC3)c(O)cc(O)c12 | 59.8 | 4800 | 80.2 |  | 
O=c1cc(-c2ccc(O)cc2)oc2c(CN3CC=C(c4ccccc4)CC3)c(O)cc(O)c12 | 56.6 | 7900 | 139 |  | 
Cc1ccc(-c2cc(=O)c3c(O)cc(O)c(-c4cccc(-c5cc(=O)c6c(O)cc(O)cc6o5)c4)c3o2)cc1C | 50.9 | 12700 | 250 |  | 
O=c1cc(-c2ccc(O)cc2)oc2c(CN3CCN(c4ccc(F)cc4)CC3)c(O)cc(O)c12 | 56.4 | 2900 | 51.4 |  | 
O=c1cc(-c2ccc(O)cc2)oc2c(CN3CCN(Cc4ccsc4)CC3)c(O)cc(O)c12 | 56.2 | 2800 | 49.8 |  | 
O=c1cc(-c2ccc(O)cc2)oc2c(CN3CCN(c4ccc(O)cc4)CC3)c(O)cc(O)c12 | 73 | 2900 | 39.7 |  | 
COC(=O)C1CCN(Cc2c(O)cc(O)c3c(=O)cc(-c4ccc(O)cc4)oc23)CC1 | 68.6 | 6700 | 97.6 |  | 
O=c1cc(-c2cccc(-c3c(O)cc(O)c4c(=O)cc(-c5ccco5)oc34)c2)oc2cc(O)cc(O)c12 | 38 | 14700 | 386 |  | 
O=c1cc(-c2ccc(O)cc2)oc2c(CN3CCN(CC4CCCCC4)CC3)c(O)cc(O)c12 | 54.9 | 3200 | 58.3 |  | 
O=C(c1ccccn1)N1CCN(Cc2c(O)cc(O)c3c(=O)cc(-c4ccc(O)cc4)oc23)CC1 | 59.6 | 1300 | 21.8 |  | 
O=c1cc(-c2ccc(O)cc2)oc2c(CN3CCN(c4ccccc4O)CC3)c(O)cc(O)c12 | 54 | 2000 | 37 |  | 
O=C(c1cccc(C(F)(F)F)c1)N1CCN(Cc2c(O)cc(O)c3c(=O)cc(-c4ccc(O)cc4)oc23)CC1 | 69.2 | 2900 | 41.9 |  | 
CC(C)CCN1CCN(Cc2c(O)cc(O)c3c(=O)cc(-c4ccc(O)cc4)oc23)CC1 | 52.4 | 3700 | 70.6 |  | 
O=c1cc(-c2ccc(O)cc2)oc2c(CN3CCN(CC4CC4)CC3)c(O)cc(O)c12 | 53.1 | 2900 | 54.6 |  | 
O=c1cc(-c2cccc(-c3c(O)cc(O)c4c(=O)cc(-c5ccc(C(F)(F)F)cc5)oc34)c2)oc2cc(O)cc(O)c12 | 52.6 | 26400 | 502 |  | 
O=c1cc(-c2cccc(-c3c(O)cc(O)c4c(=O)cc(-c5cccs5)oc34)c2)oc2cc(O)cc(O)c12 | 55 | 11100 | 202 |  | 

SMILES | Ratio IC50 (Homo sapiens [1]) | IC50 [2] [nM] | IC50 [3] [nM] | IC50 [4] [nM] | Ratio IC50 (Homo sapiens [5])
O=c1cc(-c2ccc(O)cc2)oc2c(CN3CCN(c4cncnc4)CC3)c(O)cc(O)c12 | 61 | 1800 | 29.5 |  | 
COc1ccc(C(=O)N2CCN(Cc3c(O)cc(O)c4c(=O)cc(-c5ccc(O)cc5)oc34)CC2)cc1 | 57.6 | 2500 | 43.4 |  | 
O=C(c1cccnc1)N1CCN(Cc2c(O)cc(O)c3c(=O)cc(-c4ccc(O)cc4)oc23)CC1 | 57.2 | 1500 | 26.2 |  | 
Cc1ccc(N2CCN(Cc3c(O)cc(O)c4c(=O)cc(-c5ccc(O)cc5)oc34)CC2)cc1 | 57.7 | 2800 | 48.5 |  | 
O=c1cc(-c2ccc(O)cc2)oc2c(CN3CCN(Cc4ccc(C(F)(F)F)cc4)CC3)c(O)cc(O)c12 | 63.7 | 1900 | 29.8 |  | 
Cc1cc(C)cc(COC(=O)N2CCN(Cc3c(O)cc(O)c4c(=O)cc(-c5ccc(O)cc5)oc34)CC2)c1 | 57.8 | 2000 | 34.6 |  | 
CC(=O)N1CCN(Cc2c(O)cc(O)c3c(=O)cc(-c4ccc(O)cc4)oc23)CC1 | 70.4 | 3000 | 42.6 |  | 
O=c1cc(-c2ccc(O)cc2)oc2c(CN3CCN(Cc4ccc(Cl)cc4)CC3)c(O)cc(O)c12 | 57 | 1800 | 31.6 |  | 
O=c1cc(-c2cccc(-c3c(O)cc(O)c4c(=O)cc(-c5ccc(F)cc5)oc34)c2)oc2cc(O)cc(O)c12 | 47.4 | 8500 | 179 |  | 
O=c1cc(-c2ccc(O)cc2)oc2c(CN3CCN(CC4CCCO4)CC3)c(O)cc(O)c12 (centres undefined) | 61.9 | 2500 | 40.4 |  | 
COc1cc(CN2CCN(Cc3c(O)cc(O)c4c(=O)cc(-c5ccc(O)cc5)oc34)CC2)cc(OC)c1 | 62.5 | 1700 | 27.2 |  | 
O=c1cc(-c2ccc(O)cc2)oc2c(CN3CCN(c4ccccc4)CC3)c(O)cc(O)c12 | 59 | 2100 | 35.6 |  | 
O=C(OCc1ccccc1)N1CCN(Cc2c(O)cc(O)c3c(=O)cc(-c4ccc(O)cc4)oc23)CC1 | 47.9 | 2100 | 43.8 |  | 
O=C(c1ccc(Cl)cc1)N1CCN(Cc2c(O)cc(O)c3c(=O)cc(-c4ccc(O)cc4)oc23)CC1 | 53.4 | 3000 | 56.2 |  | 
O=C(c1ccccc1)N1CCN(Cc2c(O)cc(O)c3c(=O)cc(-c4ccc(O)cc4)oc23)CC1 | 57.2 | 2900 | 50.7 |  | 
COc1ccc(CN2CCN(Cc3c(O)cc(O)c4c(=O)cc(-c5ccc(O)cc5)oc34)CC2)cc1 | 56.5 | 2000 | 35.4 |  | 
O=c1cc(-c2cccc(-c3c(O)cc(O)c4c(=O)cc(-c5ccc(O)c(O)c5)oc34)c2)oc2cc(O)cc(O)c12 | 45.9 | 29500 | 642 |  | 
O=c1cc(-c2ccc(O)cc2)oc2c(CN3CCN(Cc4ccoc4)CC3)c(O)cc(O)c12 | 59.4 | 2600 | 43.8 |  | 
O=c1cc(-c2ccc(O)cc2)oc2c(CN3CCC(c4ccccc4)CC3)c(O)cc(O)c12 | 55.6 | 4000 | 71.9 |  | 
Cn1cccc1/C=C1\C(=O)NC(=O)c2ccccc21 |  |  |  | 40000 | 88.9
O=C(c1cccc(F)c1F)C1CCN(Cc2c(O)cc(O)c3c(=O)cc(-c4ccc(O)cc4)oc23)CC1 | 56.8 | 4500 | 79.2 |  | 
O=C(C1CCCCC1)N1CCN(Cc2c(O)cc(O)c3c(=O)cc(-c4ccc(O)cc4)oc23)CC1 | 51.7 | 2300 | 44.5 |  | 
O=C(c1ccncc1)N1CCN(Cc2c(O)cc(O)c3c(=O)cc(-c4ccc(O)cc4)oc23)CC1 | 50.7 | 1400 | 27.6 |  | 
CCOC(=O)C1CCN(Cc2c(O)cc(O)c3c(=O)cc(-c4ccc(O)cc4)oc23)CC1 | 60.3 | 5600 | 92.8 |  | 
O=c1cc(-c2cccc(-c3c(O)cc(O)c4c(=O)cc(-c5ccc(O)cc5)oc34)c2)oc2cc(O)cc(O)c12 | 52.5 | 10300 | 196 |  | 
CC(C)C(=O)N1CCN(Cc2c(O)cc(O)c3c(=O)cc(-c4ccc(O)cc4)oc23)CC1 | 55.4 | 2100 | 37.9 |  | 
